Measured values published in ChEMBL document CHEMBL1201862, “PubChem BioAssay data set” (2004).
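Assay format: 96-well plates, 48-hour exposure. Here, GI50 denotes the concentration required for 50% inhibition of growth.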 Calls of active or inactive are those of the source. No stated cut-off is given here; in the data, active = GI50 up to about 1.1 µM and inactive = higher.

Key:
Assay in all cases: NCI anticancer screen, dose series, 48 h
PC-3 = test system: PC-3
SF-268 = test system: SF-268
RPMI-8226 = test system: RPMI-8226
HT-29 = test system: HT-29
SW-620 = test system: SW-620
DU-145 = test system: DU-145
SNB-19 = test system: SNB-19
HOP-62 = test system: HOP-62
T47D = test system: T47D
NCI/ADR-RES = test system: NCI/ADR-RES
SF-295 = test system: SF-295
NCI-H226 = test system: NCI-H226
HCT-116 = test system: HCT-116
Hs-578T = test system: Hs-578T
NCI-H460 = test system: NCI-H460
UO-31 = test system: UO-31
SF-539 = test system: SF-539
SK-MEL-2 = test system: SK-MEL-2
HL-60 = test system: HL-60
MOLT-4 = test system: MOLT-4

Measured: GI50

O=C(O)CCC(=O)c1ccc2sc3ccccc3c2c1
inactive: PC-3 > 100 µM | SF-268 > 100 µM | RPMI-8226 > 100 µM | HT-29 > 100 µM | SW-620 > 100 µM | DU-145 > 100 µM | SNB-19 > 100 µM | HOP-62 > 100 µM | T47D > 100 µM | NCI/ADR-RES > 100 µM | SF-295 > 100 µM | NCI-H226 > 100 µM | HCT-116 > 100 µM | Hs-578T > 100 µM | NCI-H460 > 100 µM | UO-31 > 100 µM | SF-539 > 100 µM | SK-MEL-2 > 100 µM | HL-60 15.8 µM | MOLT-4 > 100 µM

CC1(C)Oc2ccc(Cl)cc2C12CC2
inactive: PC-3 13.9 µM | SF-268 16.6 µM | RPMI-8226 16.1 µM | HT-29 17.6 µM | SW-620 11.8 µM | DU-145 15.8 µM | SNB-19 16.5 µM | HOP-62 18.2 µM | T47D 22.6 µM | NCI/ADR-RES 18.4 µM | SF-295 14 µM | NCI-H226 13.6 µM | HCT-116 14.7 µM | Hs-578T 24.4 µM | NCI-H460 17.8 µM | UO-31 16.9 µM | SF-539 31.5 µM | SK-MEL-2 16 µM | HL-60 18.5 µM | MOLT-4 17.1 µM

Cc1ccc(-c2nc3cc(Cl)ccc3[nH]2)cc1
inactive: PC-3 79.1 µM | SF-268 > 100 µM | RPMI-8226 46.8 µM | HT-29 49 µM | SW-620 > 100 µM | DU-145 > 100 µM | SNB-19 > 100 µM | HOP-62 > 100 µM | T47D > 100 µM | NCI/ADR-RES 71.3 µM | SF-295 > 100 µM | NCI-H226 > 100 µM | HCT-116 > 100 µM | Hs-578T > 100 µM | NCI-H460 > 100 µM | UO-31 > 100 µM | SF-539 > 100 µM | SK-MEL-2 > 100 µM | HL-60 27 µM | MOLT-4 32.4 µM

CCOC(CN=C=S)OCC
inactive: PC-3 > 10 µM | SF-268 > 10 µM | RPMI-8226 3.77 µM | HT-29 > 10 µM | SW-620 > 10 µM | DU-145 > 10 µM | SNB-19 > 10 µM | HOP-62 > 10 µM | T47D > 10 µM | NCI/ADR-RES > 10 µM | SF-295 > 10 µM | NCI-H226 > 10 µM | HCT-116 7.4 µM | Hs-578T > 10 µM | NCI-H460 > 10 µM | UO-31 > 10 µM | SF-539 > 10 µM | SK-MEL-2 > 10 µM | HL-60 3.83 µM | MOLT-4 > 10 µM
